Results from US8940865B2, “Myocardial peptide, preparation method and uses thereof” (Dalian Zhen-Ao Pharmaceutical Co, Ltd., priority 2008, dated 2015).
Where “and” joins values, the source holds several entries; their conditions need not be identical. Equal entries are not always repeated.

Columns and labels:
[1] = test system: ischemia/reperfusion damaged rat; experiment: Therapeutic administration, ischemia/reperfusion (LAD ligation) rat model; assay type: in vivo, SD rat; settings: therapeutic i.v. 5 minutes after ligation; for CK / LDH / MDA / SOD: rat serum
Protocol: Intraperitoneal injecting 6% Urethane with 20 ml/kg to anaesthetize the animal, fixing the animal on operating table in supine position; being connected with the electrocardiograph to detect the limb II lead electrocardiogram, tracheal intubating and connecting the animal with respirators, taking continuous positive end-expiratory pressure with tidal volume of 6 ml/200 g, frequency of 55/min and breathing ratio of 2:1. Carrying out thoracotomy on the gap between the forth and the fifth ribs of the left border of sternum, separating the ribs and removing the pericardium. Ligating at the left anterior descending coronary artery by using 6/0 silk suture by the sign of left auricle lower margin, and setting a piece of polyethylene pipe with diameter of 1 mm between the ligation silk suture and blood vessel. Ligating the silk suture to press the left anterior descending coronary artery by the polyethylene pipe and cause myocardial ischemia. Taking part of myocardium becoming grey and electrocardiogram S-T segment raising as the sign of that the left anterior descending coronary artery is ligated successfully. Taking out the polyethylene pipe carefully to cause the reperfusion. Verifying the success of reoxygenation by reactive hyperemia of ischemia area and the descending of the raised S-T segment by ½. Reoxygenation for 30 minutes, then sampling blood from abdominal aorta to prepare serum which is used to measure the biochemical index (measuring the content of CK, LDH, MDA, SPD according to the Reagent kits Instruction).
Rat's heart was taken and after being blooded, the residual blood in the ventricle was cleaned by normal saline to weight the weight of whole heart. Fat was removed, the heart was crosscut into 4˜5 pieces and was put into a tube, to be carried out NBT dye at 37° C. (dying the normal tissue rather than the ischemic tissue), taking photographs. The ischemic area of the myocardium was cut to take a weighing, and then the myocardial infarct size (MIS) was calculated by the ratio of weight of the ischemic area of the myocardium to whole heart weight, which was present by percentage.
The drug was intravenously injured on the tail 5 minutes after ligation of LAD, then reperfusion was carried out for 30 min 30 minutes after ligation of LAD. Heart was taken after sampling blood from abdominal aorta. The biochemical index and the myocardial infarction size were measure by using the above method.

[2] = test system: primary culture myocardium cell damaged by adriamycin; experiment: Effect of CMPC against adriamycin injury of primary culture myocardium cell (MTT); assay type: cell-based, Neonatal SD rat
Protocol: Remove the fibroblast through differential adhesion and chemistry method, and inoculate myocardium cell on the 96-well plates.
2.1.2 The Against Function of Cmpc to Injury of Adriamycin to Primary Culture Myocardium Cell.
Cell culture method is the same as 2.1.1
Preparation of model: Blank Control Group: cultivating myocardium cell with DMEM-H-15;
Model Group: adding 1 mg/L adriamycin, washing the plate with DMEM-H-15 two times after being cultivated for 1 h, adding DMEM-H-15 for cultivation;
Protective rate=(Ax−Amodel)/(Acontrol−Amodel)×100%;
(Ax, Amode, Acontrol respectively represent Absorbance value of Drug administration groups, Model Group and Blank control group.

[3] = test system: vitro cultured myocardium poisoned by adriamycin; experiment: Activity detection experiment of cultivation of myocardium cell (MTT); assay type: cell-based; settings: mitochondria dehydrogenase activity of adriamycin-damaged myocardium, listed as peptide
Text: “Activity detection experiment of cultivation of myocardium cell” provided by DaLian Zhen-Ao Pharmaceutical CO., LTD is adopted in the activity detection. The experiment is based on test of vitro cultured myocardium poisoned by adriamycin, wherein, […] (MTT) is used as reaction indicator to observe the enhancement of the activity of mitochondria dehydrogenase of the damaged myocardium conducted by cardio myopeptidin, to determine the protective effect of myocardium.

KGAWSNVLRGMGGAF [CMPC, Lys-Gly-Ala-Trp-Ser-Asn-Val-Leu-Arg-Gly-Met-Gly-Gly-Ala-Phe]
CK ([1]; Dosage 0.2 mg/kg): 2.026 ± 0.532 U/ml
LDH ([1]; Dosage 0.2 mg/kg): 7763.83 ± 770.70 U/L
MDA ([1]; Dosage 0.2 mg/kg): 4.878 ± 0.430 nmol/mL
SOD ([1]; Dosage 0.2 mg/kg): 140.59 ± 20.28 U/ml
CK ([1]; Dosage 0.6 mg/kg): 1.748 ± 0.573 U/ml
LDH ([1]; Dosage 0.6 mg/kg): 7034.59 ± 1167.17 U/L
MDA ([1]; Dosage 0.6 mg/kg): 4.862 ± 0.468 nmol/mL
SOD ([1]; Dosage 0.6 mg/kg): 145.41 ± 10.56 U/ml
CK ([1]; Dosage 1.8 mg/kg): 1.707 ± 0.332 U/ml
LDH ([1]; Dosage 1.8 mg/kg): 7233.69 ± 297.69 U/L
MDA ([1]; Dosage 1.8 mg/kg): 4.685 ± 0.714 nmol/mL
SOD ([1]; Dosage 1.8 mg/kg): 143.41 ± 12.14 U/ml
MIS (myocardial infarct size) ([1]; Dosage 0.2 mg/kg): 3.95 ± 0.97 %
MIS (myocardial infarct size) ([1]; Dosage 0.6 mg/kg): 4.20 ± 0.78 %
MIS (myocardial infarct size) ([1]; Dosage 1.8 mg/kg): 3.68 ± 1.39 %
% (protective rate) ([2]; Plate 1, Dosage 0.0032 mg/L): 2.01%
A540 ([2]; Plate 1, Dosage 0.0032 mg/L): 0.662 ± 0.036
% (protective rate) ([2]; Plate 1, Dosage 0.016 mg/L): 33.08%
A540 ([2]; Plate 1, Dosage 0.016 mg/L): 0.695 ± 0.039
% (protective rate) ([2]; Plate 1, Dosage 0.08 mg/L): 40.49%
A540 ([2]; Plate 1, Dosage 0.08 mg/L): 0.703 ± 0.012
% (protective rate) ([2]; Plate 1, Dosage 0.4 mg/L): 58.27%
A540 ([2]; Plate 1, Dosage 0.4 mg/L): 0.723 ± 0.018
% (protective rate) ([2]; Plate 1, Dosage 2 mg/L): 27.98%
A540 ([2]; Plate 1, Dosage 2 mg/L): 0.690 ± 0.025
% (protective rate) ([2]; Plate 1, Dosage 10 mg/L): 4.79%
A540 ([2]; Plate 1, Dosage 10 mg/L): 0.665 ± 0.032
% (protective rate) ([2]; Plate 1, Dosage 50 mg/L): 2.47%
A540 ([2]; Plate 1, Dosage 50 mg/L): 0.662 ± 0.031
% (protective rate) ([2]; Plate 2, Dosage 0.0032 mg/L): 36.17%
A540 ([2]; Plate 2, Dosage 0.0032 mg/L): 0.755 ± 0.033
% (protective rate) ([2]; Plate 2, Dosage 0.016 mg/L): 35.55%
A540 ([2]; Plate 2, Dosage 0.016 mg/L): 0.755 ± 0.024
% (protective rate) ([2]; Plate 2, Dosage 0.08 mg/L): 49.30%
A540 ([2]; Plate 2, Dosage 0.08 mg/L): 0.769 ± 0.055
% (protective rate) ([2]; Plate 2, Dosage 0.4 mg/L): 56.11%
A540 ([2]; Plate 2, Dosage 0.4 mg/L): 0.777 ± 0.057
% (protective rate) ([2]; Plate 2, Dosage 2 mg/L): 33.85%
A540 ([2]; Plate 2, Dosage 2 mg/L): 0.753 ± 0.065
% (protective rate) ([2]; Plate 2, Dosage 10 mg/L): 33.54%
A540 ([2]; Plate 2, Dosage 10 mg/L): 0.752 ± 0.039
% (protective rate) ([2]; Plate 2, Dosage 50 mg/L): 33.08%
A540 ([2]; Plate 2, Dosage 50 mg/L): 0.752 ± 0.036
% (protective rate) ([2]; Plate 3, Dosage 0.016 mg/L): 55.92%
A540 ([2]; Plate 3, Dosage 0.016 mg/L): 0.810 ± 0.020
% (protective rate) ([2]; Plate 3, Dosage 0.08 mg/L): 60.35%
A540 ([2]; Plate 3, Dosage 0.08 mg/L): 0.819 ± 0.016
% (protective rate) ([2]; Plate 3, Dosage 0.4 mg/L): 42.34%
A540 ([2]; Plate 3, Dosage 0.4 mg/L): 0.781 ± 0.050
% (protective rate) ([2]; Plate 3, Dosage 2 mg/L): 39.42%
A540 ([2]; Plate 3, Dosage 2 mg/L): 0.775 ± 0.008
% (protective rate) ([2]; Plate 3, Dosage 10 mg/L): 36.41%
A540 ([2]; Plate 3, Dosage 10 mg/L): 0.768 ± 0.057
% (protective rate) ([2]; Plate 3, Dosage 50 mg/L): 30.49%
A540 ([2]; Plate 3, Dosage 50 mg/L): 0.756 ± 0.014
Activity value [3]: 2.3570 and 2.7328 and 2.564
